Test results as given in patent US12186304B2, “Method for treating cancer by combination of IAP inhibitor and modulator of immune checkpoint molecule” (ASCENTAGE PHARMA (SUZHOU) CO., LTD., priority 2018, dated 2025).

Assays:
[1] = Phase I study (NCT03386526): safety and tolerability
Description: The Phase I dose escalation study included two parts.
Pembrolizumab was administered 200 mg IV on day 1 of a 21-day-cycle, until disease progression or untolerated toxicity.
The inclusion criteria for the Phase I study are: Age≥18 years; ECOG PS: 0-1;
Adequate hematologic, renal and liver functions; Advanced or metastatic solid tumor patients must be refractory to or intolerant of existing therapy(ies) known to provide clinical benefit for their condition.

spleen cells = test: Activation of spleen cells of healthy C57BL/6 mice in vivo; conditions: 0.05, 0.2 and 0.8 mg/kg i.p. qd x 7 doses
Description: Next, we intraperitoneally administered different dosages of APG-1387 to healthy C57BL/6 mice every day. Each group has 3 mice. After 7 days of continuous administration, the spleen was taken to obtain a single cell suspension. NK, macrophage, dendritic cells and T cells were analyzed by flow cytometry to obtain the proportion of these subsets, thus evaluate the effect of APG-1387 on each immune cell subpopulation.

CN[C@@H](C)C(=O)N[C@H]1CN(S(=O)(=O)c2cccc(S(=O)(=O)N3CC[C@H]4CC[C@@H](C(=O)NC(c5ccccc5)c5ccccc5)N4C(=O)[C@@H](NC(=O)[C@H](C)NC)C3)c2)CC[C@H]2CC[C@@H](C(=O)NC(c3ccccc3)c3ccccc3)N2C1=O [APG-1387]
TRAEs (all Grades): Peripheral sensory neuropathy, % of patients ([1]; APG-1387 45 mg): (7.7%) | TRAEs (all Grades): Peripheral sensory neuropathy, patients ([1]; APG-1387 45 mg): 1 | TRAEs (all Grades): Phlebitis, patients ([1]; APG-1387 45 mg): 0 | TRAEs (all Grades): Pneumonitis, patients ([1]; APG-1387 45 mg): 0 | TRAEs (all Grades): Pruritus, patients ([1]; APG-1387 45 mg): 0 | TRAEs (all Grades): Rash maculo-papular, patients ([1]; APG-1387 45 mg): 0 | TRAEs (all Grades): Tumor pain, patients ([1]; APG-1387 45 mg): 0 | # of pts discontinued treatment: Adverse Event ([1]; APG-1387 60 mg): 2 | # of pts discontinued treatment: Clinical progression ([1]; APG-1387 60 mg): 1 | # of pts discontinued treatment: Disease progression ([1]; APG-1387 60 mg): 1 | # of pts discontinued treatment: Lack of efficacy ([1]; APG-1387 60 mg): 0 | TRAEs (all Grades): Aspartate aminotransferase increased, patients ([1]; APG-1387 60 mg): 0 | TRAEs (all Grades): Bell's palsy, % of patients ([1]; APG-1387 60 mg): (20.0%) | TRAEs (all Grades): Bell's palsy, patients ([1]; APG-1387 60 mg): 1 | TRAEs (all Grades): Blood bilirubin increased, % of patients ([1]; APG-1387 60 mg): (20.0%) | TRAEs (all Grades): Blood bilirubin increased, patients ([1]; APG-1387 60 mg): 1 | TRAEs (all Grades): Decreased appetite, patients ([1]; APG-1387 60 mg): 0 | TRAEs (all Grades): Dehydration, patients ([1]; APG-1387 60 mg): 0 | TRAEs (all Grades): Diarrhoea, patients ([1]; APG-1387 60 mg): 0 | TRAEs (all Grades): Dyspepsia, patients ([1]; APG-1387 60 mg): 0 | TRAEs (all Grades): Eructation, patients ([1]; APG-1387 60 mg): 0 | TRAEs (all Grades): Fatigue, patients ([1]; APG-1387 60 mg): 0 | TRAEs (all Grades): Headache, % of patients ([1]; APG-1387 60 mg): (20.0%) | TRAEs (all Grades): Headache, patients ([1]; APG-1387 60 mg): 1 | TRAEs (all Grades): Lipase increased, % of patients ([1]; APG-1387 60 mg): (20.0%) | TRAEs (all Grades): Lipase increased, patients ([1]; APG-1387 60 mg): 1 | TRAEs (all Grades): Myalgia, patients ([1]; APG-1387 60 mg): 0 | TRAEs (all Grades): Nausea, patients ([1]; APG-1387 60 mg): 0 | TRAEs (all Grades): Peripheral sensory neuropathy, patients ([1]; APG-1387 60 mg): 0 | TRAEs (all Grades): Phlebitis, patients ([1]; APG-1387 60 mg): 0 | TRAEs (all Grades): Pneumonitis, % of patients ([1]; APG-1387 60 mg): (20.0%) | TRAEs (all Grades): Pneumonitis, patients ([1]; APG-1387 60 mg): 1 | TRAEs (all Grades): Pruritus, % of patients ([1]; APG-1387 60 mg): (20.0%) | TRAEs (all Grades): Pruritus, patients ([1]; APG-1387 60 mg): 1 | TRAEs (all Grades): Rash maculo-papular, % of patients ([1]; APG-1387 60 mg): (20.0%) | TRAEs (all Grades): Rash maculo-papular, patients ([1]; APG-1387 60 mg): 1 | TRAEs (all Grades): Tumor pain, patients ([1]; APG-1387 60 mg): 0 | MTD of APG-1387 monotherapy ([1]; IV once weekly in a 21-day-cycle): 45 mg | # of pts discontinued treatment: Adverse Event ([1]; Overall): 3 | # of pts discontinued treatment: Clinical progression ([1]; Overall): 2 | # of pts discontinued treatment: Disease progression ([1]; Overall): 14 | # of pts discontinued treatment: Lack of efficacy ([1]; Overall): 2 | TRAEs (all Grades): Aspartate aminotransferase increased, % of patients ([1]; Overall): (4.2%) | TRAEs (all Grades): Aspartate aminotransferase increased, patients ([1]; Overall): 1 | TRAEs (all Grades): Bell's palsy, % of patients ([1]; Overall): (8.4%) | TRAEs (all Grades): Bell's palsy, patients ([1]; Overall): 2 | TRAEs (all Grades): Blood bilirubin increased, % of patients ([1]; Overall): (4.2%) | TRAEs (all Grades): Blood bilirubin increased, patients ([1]; Overall): 1 | TRAEs (all Grades): Decreased appetite, % of patients ([1]; Overall): (8.3%) | TRAEs (all Grades): Decreased appetite, patients ([1]; Overall): 2 | TRAEs (all Grades): Dehydration, % of patients ([1]; Overall): (4.2%) | TRAEs (all Grades): Dehydration, patients ([1]; Overall): 1 | TRAEs (all Grades): Diarrhoea, % of patients ([1]; Overall): (4.2%) | TRAEs (all Grades): Diarrhoea, patients ([1]; Overall): 1 | TRAEs (all Grades): Dyspepsia, % of patients ([1]; Overall): (4.2%) | TRAEs (all Grades): Dyspepsia, patients ([1]; Overall): 1 | TRAEs (all Grades): Eructation, patients ([1]; Overall): 0 | TRAEs (all Grades): Fatigue, % of patients ([1]; Overall): (12.5%) | TRAEs (all Grades): Fatigue, patients ([1]; Overall): 3 | TRAEs (all Grades): Headache, % of patients ([1]; Overall): (8.3%) | TRAEs (all Grades): Headache, patients ([1]; Overall): 2 | TRAEs (all Grades): Lipase increased, % of patients ([1]; Overall): (4.2%) | TRAEs (all Grades): Lipase increased, patients ([1]; Overall): 1 | TRAEs (all Grades): Myalgia, % of patients ([1]; Overall): (4.2%) | TRAEs (all Grades): Myalgia, patients ([1]; Overall): 1 | TRAEs (all Grades): Nausea, % of patients ([1]; Overall): (8.3%) | TRAEs (all Grades): Nausea, patients ([1]; Overall): 2 | TRAEs (all Grades): Peripheral sensory neuropathy, % of patients ([1]; Overall): (4.2%) | TRAEs (all Grades): Peripheral sensory neuropathy, patients ([1]; Overall): 1 | TRAEs (all Grades): Phlebitis, % of patients ([1]; Overall): (4.2%) | TRAEs (all Grades): Phlebitis, patients ([1]; Overall): 1 | TRAEs (all Grades): Pneumonitis, % of patients ([1]; Overall): (4.2%) | TRAEs (all Grades): Pneumonitis, patients ([1]; Overall): 1 | TRAEs (all Grades): Pruritus, % of patients ([1]; Overall): (8.3%) | TRAEs (all Grades): Pruritus, patients ([1]; Overall): 2 | TRAEs (all Grades): Rash maculo-papular, % of patients ([1]; Overall): (8.3%) | TRAEs (all Grades): Rash maculo-papular, patients ([1]; Overall): 2 | TRAEs (all Grades): Tumor pain, patients ([1]; Overall): 0 | Dose Limiting Toxicity (DLTs) observed ([1]; at 60 mg, lipase increase and facial nerve disorder): Two | Most common treatment-related adverse events (TRAEs) (>10%) ([1]; patients): fatigue | tolerability ([1]; patients, IV once weekly in a 21-day-cycle): well tolerated | proportion of 9 types of immune cells in the spleen (spleen cells): no effect
